# According to article PMC9367672, “In vitro differences in toddalolactone metabolism in various species and its effect on cytochrome P450 expression” (Pharmaceutical Biology, 2022):
# Columns and labels:
# HLMs = assay: Prediction of in vivo hepatic clearance in humans from HLM kinetics; assay type: in vitro ADME, human
# Experimental: The in vivo hepatic clearances in oxidative metabolism and glucuronidation of toddalolactone were calculated using Equations (4)–(6) (Li et al. [2008]): (4) CLint in vitro=∑i=1nVmax(Mi)/Km(Mi) (5) CLint in vivo=CLint in vitro⋅SF (6) CLH=QH⋅fu⋅CLint in vivo/QH+fu⋅CLint in vivo where SF is the milligrams of microsomal protein per gram of liver multiplied by the grams of liver weight; CLH is hepatic clearance; fu is the unbound fraction in the blood (the value of fu was set to 1 due to the absence of available data for toddalolactone); QH is the blood flow in the liver; and Mi is the metabolite of toddalolacone. The physiological parameters to calculate intrinsic clearance were as follows. The liver weight of dogs, rats and humans were 32, 40 and 25.7 g/kg body weight, respectively; the content of microsomal protein was 77.9, 44.8 and 48.8 mg/g of liver; and the blood flow in the liver was 30.9, 55.2 and 20.7 mL/(min ⋅ kg), respectively (Naritomi et al. [2001]).
# [1] = Metabolic stability assessment in dog liver microsomes; assay type: in vitro ADME; conditions: beagle, pH 7.4, DLMs, CYP incubation system, toddalolactone 20 μM, 0-90 min, read-out: half-life value (T1/2)
# Experimental: The CYP reaction system (200 μL) consisted of 0.1 M potassium phosphate buffer (pH 7.4), an NADPH-generating system (1 mM NADPH, 10 mM G-6-P, 1 unit/mL G-6-PD, 4 mM MgCl2), and liver microsomes or recombinant human microsomes (supersomes). Each of the in vitro enzymatic assays using liver microsomes was linear with respect to incubation time and amount of protein. After a pre-incubation at 37 °C for 3 min, the reactions were initiated by adding NADP^+. After incubating for 60 min, the reactions were quenched by adding 200 μL of ice-cold acetonitrile. Samples were centrifuged at 18,000 g for 15 min at 4 °C and 10 μL of supernatant was analyzed using an HPLC system. […]
# In the UGT reaction system, liver microsomes were incubated in 200 μL of the reaction system containing 4 mM UDPGA, 5 mM MgCl2, 20 µg/mL alamethicin, and 50 mM Tris-HCl buffer (pH 7.4). […] After centrifugation at 18,000 g for 15 min, 10 μL of the supernatant was analyzed by HPLC.
# Toddalolactone (20 μM) was incubated with different liver microsomes, including HLMs, DLMs, PLMs, MLMs, RAMs, RLMs or MIMs in oxidative metabolism and glucuronidation reaction systems. […] The mixtures were centrifuged at 18,000 g for 15 min at 4 °C and then 10 μL of the supernatant was analyzed by HPLC. […]
# The peak areas of toddalolactone and its metabolites were detected using a HPLC system (Shimadzu, Kyoto, Japan). […]
# [2] = Enzyme kinetics of toddalolactone metabolism in dog liver microsomes (oxidative metabolism); assay type: in vitro ADME, beagle dog; conditions: beagle, dog, liver microsomes, pH 7.4; DLMs; P450-catalyzed oxidation; P4 formation; Vmax/Km
# Experimental: (§1) The CYP reaction system (200 μL) consisted of 0.1 M potassium phosphate buffer (pH 7.4), an NADPH-generating system (1 mM NADPH, 10 mM G-6-P, 1 unit/mL G-6-PD, 4 mM MgCl2), and liver microsomes or recombinant human microsomes (supersomes). Each of the in vitro enzymatic assays using liver microsomes was linear with respect to incubation time and amount of protein. After a pre-incubation at 37 °C for 3 min, the reactions were initiated by adding NADP^+. After incubating for 60 min, the reactions were quenched by adding 200 μL of ice-cold acetonitrile. Samples were centrifuged at 18,000 g for 15 min at 4 °C and 10 μL of supernatant was analyzed using an HPLC system. NADPH or CYP enzyme sources were not used in the control group to ensure that the metabolic reactions were CYP- and NADPH-dependent. All incubation assays were completed in triplicate. The data are presented as mean ± standard deviation (SD).
# (§2) The enzyme kinetics of toddalolactone in oxidative metabolism and glucuronidation were determined by incubating liver microsomes (0.2 mg/mL) or CYPs (15 nM) with different concentrations of toddalolactone (1–200 μM). […] The in vitro intrinsic clearance (CLint) was calculated based on the Vmax/Km ratio. Metabolites were quantified using the standard curve for toddalolactone because of the absence of metabolite standards. […]
# (§3) The enzyme kinetics in oxidative metabolism and glucuronidation of toddalolactone were studied, and preliminary experiments were performed to ensure that metabolites were formed in the linear range of both reaction time and microsomal protein concentration. […] Based on the results of toddalolactone metabolism in different species, the kinetic parameter values in RLMs, DLMs, MLMs, HLMs, RAMs, MIMs, PLMs, CYP1A1 and CYP3A5 were calculated using P4, P4, P4, P4, P2, P2, P4, P4 and P4 data in oxidative metabolism, respectively. In the glucuronidation reaction, the kinetic parameter values in RLMs, MLMs, HLMs, RAMs and PLMs were calculated using P5, P6, P6, P6 and P5 data, respectively.
# DLMs = assay: as above; assay type: in vitro ADME, beagle dog; conditions: P450-catalyzed oxidation, P4 formation
# Experimental: as §1, §2, §3
structure (smiles),measurement,setting,value
COc1cc2oc(=O)ccc2c(OC)c1C[C@@H](O)C(C)(C)O [toddalolactone],CLH versus hepatic blood flow (QH),HLMs; HLMs,8.68%
same,clearance class according to predicted CLH,HLMs; humans,low-clearance (low-clearance drugs (<30% liver blood flow))
same,in vivo hepatic clearance (CLH),"HLMs; humans, predicted from kinetic parameters of P1–P6, fu set to 1",5.25 mL/(min/kg body weight)
same,half-life at 20 μM,[1],8.23 ± 0.7 h
same,microsomal CLint,[2],0.19 µL/min/mg
same,K m,DLMs,148.93 ± 38.37 µM
same,V max,DLMs; toddalolactone 1–200 μM,29.76 ± 7.27 pmol/min/mg protein
